Key:
[1] = test system: Myc2345 (DNA, G4) TGAGGGTGGGTAGGGTGGGGAA; assay: CD melting (260 nm); details: K+ 0.6 mM; potassium phosphate, pH 7; 5 μM DNA, 25 μM PEQ
[2] = test system: Myc2345_T23 (DNA, G4) TGAGGGTGGGTAGGGTGGGTAA; assay: CD melting (260 nm); details: K+ 0.6 mM; potassium phosphate, pH 7; 5 μM DNA, 25 μM PEQ
[3] = test system: Myc2345 (DNA, G4) TGAGGGTGGGTAGGGTGGGGAA; assay: NMR solution structure; details: K+ 10 mM (potassium phosphate); pH 7.0; PEQ:DNA 3:1; end-stacking on 5'- and 3'-tetrads
[4] = test system: Myc2345_T23 (DNA, G4) TGAGGGTGGGTAGGGTGGGTAA; assay: NMR solution structure; details: K+ 10 mM (potassium phosphate); pH 6.5; PEQ:DNA 3:1; end-stacking on 5'- and 3'-tetrads
[5] = test system: 3'-TAMRA-labeled Myc2345_T23 (DNA, G4) TGAGGGTGGGTAGGGTGGGTAA; assay: TAMRA fluorescence quenching titration; details: K+ (25 mM potassium phosphate, 75 mM KCl); pH 7, 25°C; 100 nM DNA
[6] = test system: Myc2345 (DNA, G4) TGAGGGTGGGTAGGGTGGGGAA; assay: fluorescence competition (TAMRA quenching restored by unlabeled DNA); details: K+ (25 mM potassium phosphate, 75 mM KCl); pH 7, 25°C; C50 is concentration of competing unlabeled DNA; 100 nM 3'-TAMRA-Myc2345_T23, PEQ 10:1
[7] = test system: Myc2345_T23 (DNA, G4) TGAGGGTGGGTAGGGTGGGTAA; assay: as above; details: K+ (25 mM potassium phosphate, 75 mM KCl); pH 7, 25°C; C50 is concentration of competing unlabeled DNA; 100 nM 3'-TAMRA-Myc2345_T23, PEQ 10:1

ΔTm [1]: 20.1 ± 0.6 °C
ΔTm [2]: 21.1 ± 1.3 °C
binding [3]: yes
binding [4]: yes
binding [5]: yes
C50 [6]: 4.86 µM
C50 [7]: 3.71 µM
Compound: COc1cc(/C=C/c2cc(C(N)=O)c3ccccc3[n+]2C)ccc1O

— publication PMC8191789 (2021)
